Earlier results as cited in patent publication US20080114028A1, “Process for preparing polymorphic forms of solifenacin succinate” (priority 2006, published 2008).

Conditions: at room temperature in water, glacial acetic acid, dimethylsulfoxide, and methanol

- solubility: freely soluble
Compound: O=C(O[C@H]1CN2CCC1CC2)N1CCc2ccccc2[C@@H]1c1ccccc1 [Solifenacin succinate, solifenacin succinate]
